According to the supplement of paper PMC13380429:

Tests used:
U2OS [1] = experiment: cell viability relative to DMSO; higher = less toxic; settings: 72 h
Vero E6 [2] = experiment: as above; settings: 72 h
Calu-3 [3] = experiment: as above; settings: 72 h
Caco-2 [4] = experiment: as above; settings: 72 h
HepG2 [5] = experiment: as above; settings: 72 h
[6] = tested on: A549-ACE2 infected with SARS-CoV-2; experiment: morphology score (similarity to uninfected cells); higher = more like uninfected cells; settings: 24 h
[7] = tested on: A549-ACE2 infected with SARS-CoV-2; experiment: cell count relative to DMSO; higher = less toxic; settings: 24 h
A549-ACE2 = experiment: drug-induced phospholipidosis relative to tamoxifen; higher = more phospholipidosis
[8] = tested on: A549-ACE2 infected with SARS-CoV-2; experiment: SARS-CoV-2 infection rate relative to DMSO; higher = more infection; settings: 24 h
U2OS [9] = experiment: drug sensitivity score (DSS) for viability; higher = more toxic; extreme values may be limits of the assay; settings: 72 h
Vero E6 [10] = experiment: as above; settings: 72 h
Calu-3 [11] = experiment: as above; settings: 72 h
Caco-2 [12] = experiment: as above; settings: 72 h
HepG2 [13] = experiment: as above; settings: 72 h
Vero E6 [14] = experiment: relative viability EC50 (midpoint between 100% and the lowest measured viability); higher = less toxic; settings: 72 h
Calu-3 [15] = experiment: as above; settings: 72 h
Caco-2 [16] = experiment: as above; settings: 72 h
HepG2 [17] = experiment: as above; settings: 72 h
U2OS [18] = experiment: as above; settings: 72 h

CN(C)c1ccc(-c2nc3c(N4CCN(CC(=O)Nc5nccs5)CC4)c(Cl)cnc3[nH]2)cc1
Settings | SARS-CoV-2 infection rate, [8] [%] | cell count, [7] [%] | cell viability, Caco-2 [4] [%] | cell viability, Calu-3 [3] [%] | cell viability, HepG2 [5] [%] | cell viability, U2OS [1] [%] | cell viability, Vero E6 [2] [%] | morphology score, [6]
1 nM | – | – | 99.6 | 102 | 105 | 97.1 | 94.5 | –
10 nM | – | – | 103 | 95.7 | 105 | 90.9 | 97.6 | –
100 nM | – | – | 96.4 | 91.3 | 92 | 98 | 88.7 | –
0.3 µM | 94 | 101 | – | – | – | – | – | 0.26
1000 nM | – | – | 94.7 | 109 | 99.9 | 89.3 | 95.8 | –
3 µM | 101 | 97 | – | – | – | – | – | -0.1
10000 nM | – | – | 98.7 | 91.5 | 98.2 | 67.4 | 100 | –
10 µM | 96 | 97 | – | – | – | – | – | 0.16
30 µM | 65 | 83 | – | – | – | – | – | 0.47

drug-induced phospholipidosis [%], A549-ACE2
Settings | 0.3 µM | 0.833333 µM | 3.33333 µM | 6.66667 µM | 10 µM | 30 µM
24 h | 4.66 | -0.19 | 5.5 | 0.89 | 5.75 | 7.19
48 h | 6.88 | 1.34 | 2.05 | 1.71 | 1.43 | 6.09
72 h | 3.52 | -6.12 | -1.19 | 0.0519 | -2.06 | 6.76

Settings | drug sensitivity score | relative viability EC50 [µM]
Caco-2 [12] | 0 | –
Caco-2 [16] | – | > 10
Calu-3 [11] | 0 | –
Calu-3 [15] | – | > 10
HepG2 [13] | 0 | –
HepG2 [17] | – | > 10
U2OS [9] | 2.8 | –
Vero E6 [10] | 0 | –
Vero E6 [14] | – | > 10

NC(=O)c1noc([C@H](CCCC2CCCCC2)CC(=O)NO)n1
Settings | SARS-CoV-2 infection rate, [8] [%] | cell count, [7] [%] | cell viability, Caco-2 [4] [%] | cell viability, Calu-3 [3] [%] | cell viability, HepG2 [5] [%] | cell viability, U2OS [1] [%] | cell viability, Vero E6 [2] [%] | morphology score, [6]
1 nM | – | – | 97.2 | 106 | 102 | 96.4 | 95.2 | –
10 nM | – | – | 93 | 102 | 108 | 101 | 90.9 | –
100 nM | – | – | 96.9 | 93.8 | 109 | 101 | 93.1 | –
0.3 µM | 102 | 102 | – | – | – | – | – | -0.06
1000 nM | – | – | 88 | 110 | 89.6 | 97.4 | 91.4 | –
3 µM | 98 | 100 | – | – | – | – | – | 0
10000 nM | – | – | 79.6 | 98.7 | 74.8 | 86.7 | 97 | –
10 µM | 89 | 102 | – | – | – | – | – | 0.38
30 µM | 95 | 101 | – | – | – | – | – | 0.25

drug-induced phospholipidosis [%], A549-ACE2
Settings | 0.3 µM | 0.833333 µM | 3.33333 µM | 6.66667 µM | 10 µM | 30 µM
24 h | 4.23 | 6.27 | 14.7 | 16.7 | 18.4 | 23.6
48 h | 4.52 | 5.1 | 16.8 | 23.1 | 24.9 | 32.6
72 h | 5.18 | 1.64 | 8.76 | 19.5 | 21 | –

Settings | drug sensitivity score | relative viability EC50 [µM]
Caco-2 [12] | 1.2 | –
Caco-2 [16] | – | > 10
Calu-3 [11] | 0 | –
Calu-3 [15] | – | > 10
HepG2 [13] | 2.2 | –
U2OS [9] | 0.3 | –
U2OS [18] | – | > 10
Vero E6 [10] | 0 | –
Vero E6 [14] | – | > 10

OC1=c2ccccc2=C(NC2CCCCC2)/C1=C\c1ccccc1
Settings | SARS-CoV-2 infection rate, [8] [%] | cell count, [7] [%] | cell viability, Caco-2 [4] [%] | cell viability, Calu-3 [3] [%] | cell viability, HepG2 [5] [%] | cell viability, U2OS [1] [%] | cell viability, Vero E6 [2] [%] | morphology score, [6]
1 nM | – | – | 107 | 89.1 | 95.6 | 98.9 | 93.6 | –
10 nM | – | – | 92 | 82.2 | 104 | 99.4 | 95.2 | –
100 nM | – | – | 96 | 90.1 | 101 | 108 | 96.9 | –
0.1 µM | 96 | 99 | – | – | – | – | – | -0.03
0.3 µM | 99 | 101 | – | – | – | – | – | 0.22
1000 nM | – | – | 88.3 | 99.5 | 93 | 83 | 91.7 | –
1 µM | 103 | 99 | – | – | – | – | – | -0.06
3 µM | 93 | 73 | – | – | – | – | – | 0.11
10000 nM | – | – | 32.8 | 35.8 | 1.2 | 0.1 | 10.5 | –

drug-induced phospholipidosis [%], A549-ACE2
Settings | 0.3 µM | 0.833333 µM | 3.33333 µM | 30 µM
24 h | 2.77 | -0.77 | 1.63 | 12.9
48 h | 0.98 | -0.44 | 6.41 | –
72 h | 1.89 | -2.33 | 6.19 | –

Settings | drug sensitivity score | relative viability EC50 [µM]
Caco-2 [12] | 5.6 | –
Caco-2 [16] | – | 1.86
Calu-3 [11] | 3.6 | –
Calu-3 [15] | – | 3.1
HepG2 [13] | 6.5 | –
HepG2 [17] | – | 2.59
U2OS [9] | 8.3 | –
U2OS [18] | – | 1.88
Vero E6 [10] | 6.3 | –
Vero E6 [14] | – | 2.4

COc1ccc2nc3c(c(N)c2c1)CCCC3 [7-methoxytacrine]
Settings | SARS-CoV-2 infection rate, [8] [%] | cell count, [7] [%] | cell viability, Caco-2 [4] [%] | cell viability, Calu-3 [3] [%] | cell viability, HepG2 [5] [%] | cell viability, U2OS [1] [%] | cell viability, Vero E6 [2] [%] | morphology score, [6]
1 nM | – | – | 96 | 93 | 100 | 103 | 102 | –
10 nM | – | – | 98.2 | 102 | 91.4 | 102 | 99.8 | –
100 nM | – | – | 96.2 | 91.1 | 92.5 | 98.5 | 95.6 | –
0.3 µM | 102 | 103 | – | – | – | – | – | -0.02
1000 nM | – | – | 93.8 | 97.7 | 79.3 | 100 | 95.4 | –
3 µM | 81 | 109 | – | – | – | – | – | 0.53
10000 nM | – | – | 92.2 | 95.5 | 83.5 | 95.3 | 98.9 | –
10 µM | 34 | 115 | – | – | – | – | – | 0.82
30 µM | 17 | 111 | – | – | – | – | – | 0.76

drug-induced phospholipidosis [%], A549-ACE2
Settings | 0.3 µM | 0.833333 µM | 3.33333 µM | 6.66667 µM | 10 µM | 30 µM
24 h | 0.14 | -0.76 | 0.16 | 7.44 | 14.2 | 83.8
48 h | 2.14 | -1.42 | 1.92 | 4.91 | 9.37 | 110
72 h | 5.21 | -1.72 | 1.16 | 5.48 | 11.9 | 129

Settings | drug sensitivity score | relative viability EC50 [µM]
Caco-2 [12] | 0 | –
Caco-2 [16] | – | > 10
Calu-3 [11] | 0 | –
Calu-3 [15] | – | > 10
HepG2 [13] | 2.6 | –
HepG2 [17] | – | > 10
U2OS [9] | 0 | –
U2OS [18] | – | > 10
Vero E6 [10] | 0 | –
Vero E6 [14] | – | > 10
